Consider nine molecules from ChEMBL document CHEMBL2203067, “Peptide-chlorambucil conjugates combat pgp-dependent drug efflux” (ACS Med Chem Lett, 2011).

For orientation: inhibition means the share of the control response that was lost under treatment.

The source made the active and inactive calls. The rule behind the calls is not given here.

For series [1], the system named is A2780. Nature of the series: Inhibition of Pgp-mediated drug efflux in adriamycin-resistant human A2780 cells assessed as increase in intracellular adriamycin level at 5 uM after 40 mins by flow cytometry analysis. The class given is cell-based. Background: In flow cytometry, cells or beads pass a laser one at a time.
Series [2] is described as follows: Cellular uptake in adriamycin-resistant human A2780 cells plasma membrane at 5 uM after 5 mins by confocal microscopic analysis. The class given is ADME, cell-based. The following applies: a2780, 5 min.
Series [3] relates to A2780. Nature of the series: Inhibition of Pgp-mediated drug efflux in adriamycin-resistant human A2780 cells assessed as increase in adriamycin uptake at 5 uM after 1 hr by flow cytometry analysis. The class given is cell-based.
Series [4] concerns A2780. Nature of the series: Inhibition of Pgp-mediated drug efflux in adriamycin-resistant human A2780 cells assessed as increase in adriamycin uptake at 5 uM after 8 hrs by flow cytometry analysis. The class given is cell-based.
Series [5] deals with A2780. Nature of the series: Inhibition of Pgp-mediated drug efflux in adriamycin-resistant human A2780 cells assessed as increase in adriamycin-induced cytotoxicity at 5 uM after 1 hr by CCK-8 assay. The class given is cell-based. A general note: Formazan colour is commonly taken as a measure of viable cells.
The test system of series [6] is A2780. Nature of the series: Inhibition of Pgp-mediated drug efflux in adriamycin-resistant human A2780 cells assessed as increase in adriamycin-induced cytotoxicity at 5 uM after 8 hrs by CCK-8 assay. The format is cell-based.
Series [7] deals with A2780. In words: Cellular uptake in adriamycin-resistant human A2780 cells at 20 uM after 5 mins by confocal microscopic analysis. The format is ADME, cell-based. To be noted: a2780, 5 min.
The subject of series [8] is A2780. In words: Inhibition of Pgp-mediated drug efflux in human A2780 cells overexpressing Pgp assessed as increase in intracellular adriamycin level at 5 uM after 40 mins by flow cytometry analysis. The class given is cell-based.
Series [9] concerns A2780. Nature of the series: Inhibition of Pgp-mediated drug efflux in adriamycin-resistant human A2780 cells assessed as increase in intracellular actinomycin level at 5 uM after 40 mins by flow cytometry analysis. The format is cell-based.
Series [10] in a line: Cellular uptake in adriamycin-resistant human A2780 cell plasma membrane at 5 uM after 40 mins by confocal microscopic analysis. The class given is ADME, cell-based. To be noted: a2780, 40 min.
The nature of series [11]: Cellular uptake in adriamycin-resistant human A2780 cell mitochondria at 5 uM after 40 mins by confocal microscopic analysis. The class given is ADME. To be noted: a2780, 40 min.
The nature of series [12]: Cellular uptake in wild type human A2780 cell mitochondria at 5 uM after 40 mins by confocal microscopic analysis. The format is ADME. To be noted: a2780, 40 min.
Series [13] deals with ATP-dependent translocase ABCB1 (Homo sapiens, UniProt P08183). In words: Inhibition of p-glycoprotein in adriamycin-resistant human A2780 cell at 5 uM after 40 mins by confocal microscopic analysis. To be noted: a2780, 40 min.
ATP-dependent translocase ABCB1, sequence (P08183 whole entry): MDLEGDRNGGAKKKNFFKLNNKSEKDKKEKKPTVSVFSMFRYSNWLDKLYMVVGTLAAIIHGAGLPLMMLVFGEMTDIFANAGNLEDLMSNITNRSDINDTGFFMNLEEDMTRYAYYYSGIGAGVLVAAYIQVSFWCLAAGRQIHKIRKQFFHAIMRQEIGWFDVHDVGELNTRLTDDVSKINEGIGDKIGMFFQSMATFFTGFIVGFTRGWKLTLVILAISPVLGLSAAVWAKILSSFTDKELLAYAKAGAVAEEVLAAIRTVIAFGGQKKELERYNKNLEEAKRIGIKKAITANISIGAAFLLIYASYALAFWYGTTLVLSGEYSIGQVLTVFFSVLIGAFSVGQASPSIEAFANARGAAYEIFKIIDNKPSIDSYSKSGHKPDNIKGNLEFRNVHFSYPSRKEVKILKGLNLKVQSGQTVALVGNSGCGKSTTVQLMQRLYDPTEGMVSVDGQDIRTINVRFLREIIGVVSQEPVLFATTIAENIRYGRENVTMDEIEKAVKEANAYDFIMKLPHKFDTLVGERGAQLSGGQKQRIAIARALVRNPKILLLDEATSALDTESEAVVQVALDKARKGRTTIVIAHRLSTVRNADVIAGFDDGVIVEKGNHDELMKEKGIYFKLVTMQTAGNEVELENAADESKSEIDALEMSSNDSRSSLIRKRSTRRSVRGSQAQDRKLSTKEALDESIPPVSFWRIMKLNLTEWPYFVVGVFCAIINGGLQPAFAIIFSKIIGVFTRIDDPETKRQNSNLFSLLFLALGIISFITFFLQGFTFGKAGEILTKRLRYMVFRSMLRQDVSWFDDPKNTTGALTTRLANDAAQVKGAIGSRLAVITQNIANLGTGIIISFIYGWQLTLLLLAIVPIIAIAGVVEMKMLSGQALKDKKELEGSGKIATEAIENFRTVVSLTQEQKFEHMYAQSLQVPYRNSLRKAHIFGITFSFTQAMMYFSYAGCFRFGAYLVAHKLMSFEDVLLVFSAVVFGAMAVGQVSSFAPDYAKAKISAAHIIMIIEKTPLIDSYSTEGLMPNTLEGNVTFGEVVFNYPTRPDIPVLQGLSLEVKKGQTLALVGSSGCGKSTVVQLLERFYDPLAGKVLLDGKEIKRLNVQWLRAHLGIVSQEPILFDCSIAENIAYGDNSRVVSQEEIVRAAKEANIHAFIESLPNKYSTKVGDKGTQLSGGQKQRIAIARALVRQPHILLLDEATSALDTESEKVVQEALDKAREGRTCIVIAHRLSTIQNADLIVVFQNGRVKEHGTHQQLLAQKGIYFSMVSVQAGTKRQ
For series [14], the system named is A2780. In words: Inhibition of Pgp-mediated drug efflux in adriamycin-resistant human A2780 cells assessed as increase of MitoTracker accumulation at 5 uM after 5 mins by confocal microscopic analysis. The class given is cell-based.
The subject of series [15] is A2780. Nature of the series: Inhibition of Pgp-mediated drug efflux in adriamycin-resistant human A2780 cells assessed as localization of MitoTracker from plasma membrane to intracellular sites at 5 uM after 5 mins by confocal microscopic analysis. The class given is cell-based.
Series [16] relates to A2780. Nature of the series: Inhibition of Pgp-mediated drug efflux in adriamycin-resistant human A2780 cells assessed as localization of adriamycin from plasma membrane to intracellular sites at 5 uM after 5 mins by confocal microscopic analysis. The format is cell-based.
Series [17] deals with A2780. Nature of the series: Inhibition of Pgp in adriamycin-resistant human A2780 cells assessed as co-immunoprecipitation with biotin-Fxr3kCbl at 5 uM after 1 hr by immunoblotting analysis. The class given is cell-based.

For `CN1/C(=C\c2cc[n+](CCCCCC(=O)N[C@@H](Cc3ccncc3)C(=O)N[C@H](CCCNC(=N)N)C(=O)N[C@@H](Cc3ccncc3)C(=O)N[C@H](CCCNC(=N)N)C(=O)N[C@@H](Cc3ccncc3)C(=O)N[C@H](CCCNC(=N)N)C(=O)N[C@H](CCCCNC(=O)CCCc3ccc(N(CCCl)CCCl)cc3)C(N)=O)c3ccccc23)Sc2ccccc21`, the inhibition result with A2780 [1] and with A2780 [3] was “Active” each time. The Drug uptake entry in series [2] is “Active”. In the series with A2780 [4], the inhibition entry was “inactive”. The inhibition in the series with A2780 [5] and with A2780 [6] was 50% each time.

With `CN1/C(=C\c2cc[n+](CCCCCC(=O)N[C@@H](Cc3ccc(O)cc3)C(=O)N[C@H](CCCNC(=N)N)C(=O)N[C@@H](Cc3ccc(O)cc3)C(=O)N[C@H](CCCNC(=N)N)C(=O)N[C@@H](Cc3ccc(O)cc3)C(=O)N[C@H](CCCNC(=N)N)C(=O)N[C@H](CCCCNC(=O)CCCc3ccc(N(CCCl)CCCl)cc3)C(N)=O)c3ccccc23)Sc2ccccc21`, the inhibition result in the series with A2780 [1] is “Active”. Besides, the Drug uptake entry (in series [2]; in the series with A2780 [7]) was “Not Active” throughout.

Regarding `N=C(N)NCCC[C@@H](NC(=O)[C@H](CC1CCCCC1)NC(=O)[C@@H](CCCNC(=N)N)NC(=O)[C@H](CC1CCCCC1)NC(=O)[C@@H](CCCNC(=N)N)NC(=O)[C@@H](N)CC1CCCCC1)C(=O)N[C@@H](CCCCN)C(N)=O`, the inhibition result in the series on A2780 [8] is “inactive”.

For `CN1/C(=C\c2cc[n+](CCCCCC(=O)N[C@@H](CC3CCCCC3)C(=O)N[C@H](CCCCN)C(=O)N[C@@H](CC3CCCCC3)C(=O)N[C@H](CCCCN)C(=O)N[C@@H](CC3CCCCC3)C(=O)N[C@H](CCCCN)C(=O)N[C@H](CCCCNC(=O)CCCc3ccc(N(CCCl)CCCl)cc3)C(N)=O)c3ccccc23)Sc2ccccc21`, the inhibition entry in the series with A2780 [1] and with A2780 [3] was “Active” in each case. Further, the inhibition result in the series with A2780 [4] was “inactive”. Moreover, the inhibition in the series with A2780 [5] and with A2780 [6] was 50% each time.

`O=C(O)CCCc1ccc(N(CCCl)CCCl)cc1`: the inhibition result in the series on A2780 [8] was “inactive”.

Regarding `CN1/C(=C\c2cc[n+](CCCCCC(=O)N[C@@H](CC3CCCCC3)C(=O)N[C@H](CCCNC(=N)N)C(=O)N[C@@H](CC3CCCCC3)C(=O)N[C@H](CCCNC(=N)N)C(=O)N[C@@H](CC3CCCCC3)C(=O)N[C@H](CCCNC(=N)N)C(=O)N[C@H](CCCCNC(=O)CCCc3ccc(N(CCCl)CCCl)cc3)C(N)=O)c3ccccc23)Sc2ccccc21`, the inhibition result in the series on A2780 [1] and in the series with A2780 [9] was “Active” in each case. The Drug uptake entry in series [2] was “Active”.

`CN1/C(=C\c2cc[n+](CCCCCC(=O)N[C@@H](CCCNC(=N)N)C(=O)N[C@@H](CCCNC(=N)N)C(=O)N[C@@H](CCCNC(=N)N)C(=O)N[C@@H](CCCNC(=N)N)C(=O)N[C@@H](CCCNC(=N)N)C(=O)N[C@@H](CCCNC(=N)N)C(=O)N[C@H](CCCCNC(=O)CCCc3ccc(N(CCCl)CCCl)cc3)C(N)=O)c3ccccc23)Sc2ccccc21`: the inhibition result in the series with A2780 [1] is “Active”. Further, the Drug uptake result (in series [2]; with A2780 [7]) was “Not Active” each time.

Regarding `CN1/C(=C\c2cc[n+](CCCCCC(=O)N[C@@H](Cc3ccccc3)C(=O)N[C@H](CCCNC(=N)N)C(=O)N[C@@H](Cc3ccccc3)C(=O)N[C@H](CCCNC(=N)N)C(=O)N[C@@H](Cc3ccccc3)C(=O)N[C@H](CCCNC(=N)N)C(=O)N[C@H](CCCCNC(=O)CCCc3ccc(N(CCCl)CCCl)cc3)C(N)=O)c3ccccc23)Sc2ccccc21`, the inhibition result with A2780 [1] and with A2780 [3] was “Active” each time. For the same molecule, the Drug uptake entry in series [2] was “Active”. For the same molecule, the inhibition entry in the series with A2780 [4] was “inactive”. The inhibition in the series with A2780 [5] and in the series with A2780 [6] was 50% throughout.

For `CN1/C(=C\c2cc[n+](CCCCCC(=O)N[C@@H](CC3CCCCC3)C(=O)N[C@H](CCCNC(=N)N)C(=O)N[C@@H](CC3CCCCC3)C(=O)N[C@H](CCCNC(=N)N)C(=O)N[C@@H](CC3CCCCC3)C(=O)N[C@H](CCCNC(=N)N)C(=O)N[C@@H](CCCCNC(=O)CCCc3ccc(N(CCCl)CCCl)cc3)C(N)=O)c3ccccc23)Sc2ccccc21`, the Drug uptake entry in series [10] is “Active”; in [11], “Not Active”; in series [12], “Active”. In addition, the “inhibition (INH)” value in series [13] is on record as “Active”. In addition, the inhibition result in the series on A2780 [14] was “inactive”. For the same molecule, the inhibition result with A2780 [8], with A2780 [15], with A2780 [16] and with A2780 [17] was “Active” each time.
